Data: patent publication US7981911B2, “Pharmaceutical formulations” (Abbott Laboratories, priority 1999, dated 2011)

Assay: oral bioavailability in dogs
Type: in vivo
Settings: both sexes, beagle, dog, plasma; unformulated solid in a capsule dosage form; 5 mg/kg oral dose in dogs
Protocol: Dogs (beagle dogs, mixed sexes, weighing 7-14 kg) were fasted overnight prior to dosing, but were permitted water ad libitum. Each dog received a 100 μg/kg subcutaneous dose of histamine approximately 30 minutes prior to dosing. Each dog received a single dosage form corresponding to a 5 mg/kg dose of the drug. The dose was followed by approximately 10 milliliters of water. Blood samples were obtained from each animal prior to dosing and 0.25, 0.5, 1.0, 1.5, 2, 3, 4, 6, 8, 10, and 12 hours after drug administration. The plasma was separated from the red cells by centrifugation and frozen (−30° C.) until analysis. Concentrations of parent drug were determined by reverse phase HPLC with low wavelength UV detection following liquid-liquid extraction of the plasma samples. The parent drug area under the curve was calculated by the trapezoidal method over the time course of the study. The absolute bioavailability of each test composition was calculated by comparing the area under the curve after oral dosing to that obtained from a single intravenous dose. Each capsule or capsule composition was evaluated in a group containing at least six dogs; the values reported are averages for each group of dogs.

bioavailability: < 2%
Structure (SMILES): CC(C)c1nc(CN(C)C(=O)NC(C(=O)NC(Cc2ccccc2)CC(O)C(Cc2ccccc2)NC(=O)OCc2cncs2)C(C)C)cs1 (stereo not shown) [compound of formula I]
